EC50 and EC90 data for 33 molecules are collected here from patent US20240327354A1, “GRAM-NEGATIVE BACTERIA EFFLUX PUMP INHIBITORS” (INSTITUT NATIONAL DE LA SANTÉ ET DE LA RECHERCHE MÉDICALE, priority 2021, published 2024).

Each structure is given as a SMILES string. Structures can show the parent of a compound that is named as a salt.

One experiment deals with E. coli BW25113. Nature of the experiment: Assay 1: growth inhibition of E. coli by sub-inhibitory pyridomycin in combination with examples (resazurin reduction). It is filed as cell-based, Escherichia coli. To be noted: read-out: EC50 on E. coli with 8 μg/mL of pyridomycin, 8 μg/mL pyridomycin, 5 h, 37° C. An excerpt: (§1) Escherichia coli BW25113 (CGSC 7636) and its derivatives E. coli ΔtolC (JW5503-1, ΔtolC732::kan, CGSC 11430), E. coli ΔacrA (JW0452-3, ΔacrA748::kan, CGSC 11843) and E. coli ΔacrB (JW0451-2, ΔacrB747::kan, CGSC 8609) were obtained from E. coli Genetic Stock Center (CGSC, New Haven, Connecticut) and originated from the Keio Collection (Baba T et al, Mol Sys Biol, 2006). Klebsiella pneumoniae (LMG 2095/ATCC 13883) and K. pneumoniae (ATCC43816), Pseudomonas aeruginosa (PAO1), Acinetobacter baumannii (LMG 1025, ATCC 17978), were obtained from ATCC or BCCM/LMG Bacteria Collection. All bacteria were grown and tested in cation-adjusted Mueller-Hinton broth (CAMHB; BD Difco) at 37° C. For conservation, log phase bacteria were frozen (−80° C.) in CAMHB supplemented with 15% glycerol.
Briefly, E. coli BW25113 were diluted from frozen or growing stocks to an OD600 of 0.0004-0.001 in CAMHB. […] E. coli BW25113 viability was evaluated using the resazurin reduction assay, and measured by fluorescence (POLARstar Omega, BMG Labtech: Ex: 530 nm Em: 590 nm). EC50 were defined as the compound concentration that prevented 50% of resazurin turnover compared to the non-treated bacteria.

The subject of experiment [1] is A. baumannii LMG 1025 (ATCC 17978). Nature of the experiment: Assay 2: growth inhibition of A. baumannii by sub-inhibitory chloramphenicol in combination with examples (resazurin reduction). It is filed as cell-based, Acinetobacter baumannii. To be noted: read-out: EC90 on A. baumannii with 10 μg/mL of chloramphenicol, 10 μg/mL chloramphenicol, 5 h or 24 h, 37° C.
From the text: as §1
Measurement of Growth Inhibition of A. baumannii Strains by Sub Inhibitory Concentrations of Chloramphenicol in Combination with Examples 1-137
For the evaluation of the dose dependent activity of examples 1-137, their ability to boost the antibacterial activity of sub-inhibitory concentrations chloramphenicol was determined. Briefly, A. baumannii LMG 1025 (ATCC 17978) were diluted from frozen or growing stocks to an OD600 of 0.001 in CAMHB. The bacterial suspension was then used as such (no-antibiotic control to evaluate EPI activity), or spiked with chloramphenicol at a final concentration of 10 μg/mL. Bacteria were then added to microplates carrying serial dilutions of the compounds examples 1-137, and incubated for (5 h or 24 h, 37° C.). Bacterial viability was evaluated using the resazurin reduction assay, and measured by fluorescence (POLARstar Omega, BMG Labtech: Ex: 530 nm Em: 590 nm). […] were defined as the compound concentration that prevented 90% of resazurin turnover compared to the non-treated bacteria.

For `O=C(OCCc1ccccc1)c1cnc(N2CCNCC2)c(Cl)c1` [Example 30, 2-phenylethyl 5-chloro-6-piperazin-1-yl-pyridine-3-carboxylate;hydrochloride], the EC50 with E. coli BW25113 was in the range of 5 to 100 µM. Moreover, the EC90 in experiment [1] was 100 to 500 µM.
With `O=C(OCc1ccccc1)c1cnc(N2CCNCC2)c(Cl)c1` [Example 22, benzyl 5-chloro-6-piperazin-1-yl-pyridine-3-carboxylate;hydrochloride], the EC50 in the experiment with E. coli BW25113 lay in the range of 5 to 100 µM. Moreover, the EC90 in experiment [1] fell in the range of 100 to 500 µM.
Turning to `Clc1cc2cc(-c3cccc4c3CNC4)ccc2nc1N1CCNCC1` [Example 134, 3-chloro-6-isoindolin-4-yl-2-piperazin-1-yl-quinoline;dihydrochloride], the EC50 with E. coli BW25113 is less than 5 µM. For the same molecule, the EC90 in experiment [1] lay in the range of 5 to 100 µM.
As to `FC(F)(F)c1cnc(N2CC3CC2CN3)c(Cl)c1` [Example 15, (1S,4S)-2-[3-chloro-5-(trifluoromethyl)-2-pyridyl]-2,5-diazabicyclo[2.2.1]heptane;formic acid], in the experiment on E. coli BW25113, the EC50 is 100 to 500 µM. Moreover, in experiment [1], the EC90 lay in the range of 100 to 500 µM.
`FC(F)(F)c1ccc(N2CCNCC2)c(Cl)c1` [Example 20, 1-[2-chloro-4-(trifluoromethyl)phenyl]piperazine; hydrochloride]: in the experiment with E. coli BW25113, the EC50 was 5 to 100 µM. Besides, in experiment [1], the EC90 lay in the range of 100 to 500 µM.
For `Cc1cccc2cc(Cl)c(N3CCNCC3)nc12` [Example 59, 3-chloro-8-methyl-2-piperazin-1-yl-quinoline;hydrochloride], in the experiment with E. coli BW25113, the EC50 is less than 5 µM. Besides, in experiment [1], the EC90 was 100 to 500 µM.
In the case of `Cc1ccc2nc(N3CCNCC3)c(Br)cc2c1` [Example 55, 3-bromo-6-methyl-2-piperazin-1-yl-quinoline;hydrochloride], in the experiment with E. coli BW25113, the EC50 is less than 5 µM. The EC90 in experiment [1] lay within 100 to 500 µM.
Take `FC(F)(F)c1cc(I)cnc1N1CCNCC1` [Example 21, 1-[5-iodo-3-(trifluoromethyl)-2-pyridyl]piperazine; hydrochloride]: the EC50 in the experiment with E. coli BW25113 fell in the range of 5 to 100 µM. Also, in experiment [1], the EC90 lay in the range of 100 to 500 µM.
`FC(F)(F)c1cnc(N2CCCNCC2)c(Cl)c1` [Example 6, 1-[3-chloro-5-(trifluoromethyl)-2-pyridyl]-1,4-diazepane]: the EC50 in the experiment on E. coli BW25113 lay within 100 to 500 µM. For the same molecule, in experiment [1], the EC90 is 100 to 500 µM.
Regarding `Cc1ccc2nc(Cl)c(N3CCNCC3)cc2c1` [Example 42, 2-chloro-6-methyl-3-piperazin-1-yl-quinoline;hydrochloride], the EC50 with E. coli BW25113 is 5 to 100 µM. The EC90 in experiment [1] was 100 to 500 µM.
For `FC(F)(F)c1ccc2nc(N3CCNCC3)c(Br)cc2c1` [Example 53, 3-bromo-2-piperazin-1-yl-6-(trifluoromethyl)quinoline; hydrochloride], in that order: 5 to 100 µM and 100 to 500 µM.
`O=C(NCc1ccc(Cl)cc1)c1cnc(N2CCNCC2)c(Cl)c1` [Example 33, 5-chloro-N-[(4-chlorophenyl)methyl]-6-piperazin-1-yl-pyridine-3-carboxamide;hydrochloride]: in the experiment with E. coli BW25113, the EC50 lay in the range of 5 to 100 µM. Moreover, the EC90 in experiment [1] was 100 to 500 µM.
On the same counts, the results for `O=C(OCCCc1ccc(Cl)cc1)c1cnc(N2CCNCC2)c(Cl)c1` [Example 27, 3-(4-chlorophenyl)propyl 5-chloro-6-piperazin-1-yl-pyridine-3-carboxylate;hydrochloride] are 100 to 500 µM and 100 to 500 µM.
In the case of `Clc1ccc2nc(N3CCNCC3)c(Br)cc2c1` [Example 54, 3-bromo-6-chloro-2-piperazin-1-yl-quinoline; hydrochloride], the EC50 with E. coli BW25113 is less than 5 µM. Besides, in experiment [1], the EC90 lay in the range of 100 to 500 µM.
For `Clc1nc2ccccc2nc1N1CCNCC1` [Example 46, 2-chloro-3-piperazin-1-yl-quinoxaline;hydrochloride], the EC50 in the experiment with E. coli BW25113 was less than 5 µM. For the same molecule, in experiment [1], the EC90 fell in the range of 100 to 500 µM.
In the case of `Cc1cc2ccccc2nc1N1CCNCC1` [Example 38, 3-methyl-2-piperazin-1-yl-quinoline; hydrochloride], in the experiment with E. coli BW25113, the EC50 lay within 5 to 100 µM. In experiment [1], the EC90 lay in the range of 100 to 500 µM.
In the case of `Ic1cc2ccccc2nc1N1CCNCC1` [Example 52, 3-iodo-2-piperazin-1-yl-quinoline;hydrochloride], the EC50 in the experiment on E. coli BW25113 is less than 5 µM. Also, in experiment [1], the EC90 was in the range of 100 to 500 µM.
For the molecule `C[C@@H]1CN(c2nc3ccccc3nc2Cl)CCN1` [Example 49, hydrochloride], the EC50 in the experiment on E. coli BW25113 lay in the range of 5 to 100 µM. Further, in experiment [1], the EC90 was 100 to 500 µM.
`N#Cc1cc2ccccc2nc1N1CCNCC1` [Example 39, 2-piperazin-1-ylquinoline-3-carbonitrile; hydrochloride]: the EC50 in the experiment on E. coli BW25113 lay within 5 to 100 µM. The EC90 in experiment [1] lay within 100 to 500 µM.
Turning to `Clc1cc2ccccc2nc1N1CCNCC1` [Example 37, 3-chloro-2-piperazin-1-yl-quinoline; hydrochloride], the EC50 in the experiment with E. coli BW25113 is less than 5 µM. For the same molecule, the EC90 in experiment [1] was 5 to 100 µM.
Turning to `Clc1cc2cc(-c3ccccc3)ccc2nc1N1CCNCC1` [Example 106, 3-chloro-6-phenyl-2-piperazin-1-yl-quinoline;hydrochloride], the EC50 in the experiment with E. coli BW25113 was 5 to 100 µM. The EC90 in experiment [1] is 5 to 100 µM.
In the case of `Clc1ccc2nc(Cl)c(N3CCNCC3)cc2c1` [Example 41, 2,6-dichloro-3-piperazin-1-yl-quinoline;hydrochloride], the EC50 in the experiment on E. coli BW25113 lay within 5 to 100 µM. Besides, the EC90 in experiment [1] was in the range of 100 to 500 µM.
For `O=C(OCCc1ccc(Cl)cc1)c1cnc(N2CCNCC2)c(Cl)c1` [Example 26, 2-(4-chlorophenyl)ethyl 5-chloro-6-piperazin-1-yl-pyridine-3-carboxylate;hydrochloride], the EC50 in the experiment with E. coli BW25113 is 100 to 500 µM. For the same molecule, in experiment [1], the EC90 lay in the range of 100 to 500 µM.
In the case of `Cc1ccc(COC(=O)c2cnc(N3CCNCC3)c(Cl)c2)cc1` [Example 24, p-tolylmethyl 5-chloro-6-piperazin-1-yl-pyridine-3-carboxylate;hydrochloride], the EC50 in the experiment with E. coli BW25113 fell in the range of 5 to 100 µM. Further, the EC90 in experiment [1] lay in the range of 100 to 500 µM.
Regarding `CCN1CCN(c2nc3ccccc3nc2Cl)CC1` [Example 9, 2-chloro-3-(4-ethylpiperazin-1-yl)quinoxaline;hydrochloride], the EC50 in the experiment with E. coli BW25113 was 5 to 100 µM. Besides, the EC90 in experiment [1] fell in the range of 100 to 500 µM.
For the molecule `Cc1c(Cl)ccc2cc(Cl)c(N3CCNCC3)nc12` [Example 98, 3,7-dichloro-8-methyl-2-piperazin-1-yl-quinoline;hydrochloride], the EC50 in the experiment on E. coli BW25113 is less than 5 µM. In addition, in experiment [1], the EC90 is 5 to 100 µM.
Turning to `O=C(OCCCc1ccccc1)c1cnc(N2CCNCC2)c(Cl)c1` [Example 23, 3-phenylpropyl 5-chloro-6-piperazin-1-yl-pyridine-3-carboxylate;hydrochloride], the EC50 in the experiment with E. coli BW25113 is 100 to 500 µM. Besides, the EC90 in experiment [1] was 100 to 500 µM.
Consider `Brc1cnc(N2CCCNCC2)c2ccccc12` [Example 8, 4-bromo-1-(1,4-diazepan-1-yl)isoquinoline], for which the EC50 with E. coli BW25113 fell in the range of 5 to 100 µM. The EC90 in experiment [1] is 5 to 100 µM.
Take `COc1nc2ccccc2nc1N1CCNCC1` [Example 82, 2-methoxy-3-piperazin-1-yl-quinoxaline; 2,2,2-trifluoroacetic acid]: the EC50 in the experiment with E. coli BW25113 lay in the range of 5 to 100 µM. The EC90 in experiment [1] was in the range of 100 to 500 µM.
Turning to `O=C(OCc1ccc(Cl)cc1)c1cnc(N2CCNCC2)c(Cl)c1` [Example 25, (4-chlorophenyl)methyl 5-chloro-6-piperazin-1-yl-pyridine-3-carboxylate;hydrochloride], in the experiment with E. coli BW25113, the EC50 was 5 to 100 µM. Also, the EC90 in experiment [1] is 100 to 500 µM.
For the molecule `Clc1nc2ccccc2nc1N1CC2CCC(C1)N2` [Example 48, 2-chloro-3-(3,8-diazabicyclo[3.2.1]octan-3-yl)quinoxaline;hydrochloride], the EC50 with E. coli BW25113 was 5 to 100 µM. Besides, the EC90 in experiment [1] fell in the range of 100 to 500 µM.
Turning to `Clc1cc2ccccc2nc1N1C2CCC1CNC2` [Example 45, 3-chloro-2-(3,8-diazabicyclo[3.2.1]octan-8-yl)quinoline;hydrochloride], in the experiment with E. coli BW25113, the EC50 fell in the range of 100 to 500 µM. Besides, the EC90 in experiment [1] fell in the range of 100 to 500 µM.
On to `FC(F)(F)c1cnc(N2CCNCC2)c(Br)c1` [Example 17, 1-[3-bromo-5-(trifluoromethyl)-2-pyridyl]piperazine; hydrochloride], for which the EC50 in the experiment on E. coli BW25113 lay in the range of 5 to 100 µM. The EC90 in experiment [1] is 100 to 500 µM.
